What was measured:
Cox-2 = target: T1, Cox-2 (Homo sapiens, UniProt P35354); test: Human whole blood assay, COX-2 (LPS-induced PGE2 production); type: cell-based; details: for Selectivity Ratio: Cox-1 U937 IC50 / Cox-2 Whole Blood IC50; for IC50: human whole blood, LPS-induced PGE2, 24 hours at 37° C
T1 construct: active only after incubation of human whole blood with LPS, which induces COX-2; endogenous in cells; host or cells: fresh heparinized human whole blood from volunteers, incubated with LPS
T1 sequence (P35354 18-604): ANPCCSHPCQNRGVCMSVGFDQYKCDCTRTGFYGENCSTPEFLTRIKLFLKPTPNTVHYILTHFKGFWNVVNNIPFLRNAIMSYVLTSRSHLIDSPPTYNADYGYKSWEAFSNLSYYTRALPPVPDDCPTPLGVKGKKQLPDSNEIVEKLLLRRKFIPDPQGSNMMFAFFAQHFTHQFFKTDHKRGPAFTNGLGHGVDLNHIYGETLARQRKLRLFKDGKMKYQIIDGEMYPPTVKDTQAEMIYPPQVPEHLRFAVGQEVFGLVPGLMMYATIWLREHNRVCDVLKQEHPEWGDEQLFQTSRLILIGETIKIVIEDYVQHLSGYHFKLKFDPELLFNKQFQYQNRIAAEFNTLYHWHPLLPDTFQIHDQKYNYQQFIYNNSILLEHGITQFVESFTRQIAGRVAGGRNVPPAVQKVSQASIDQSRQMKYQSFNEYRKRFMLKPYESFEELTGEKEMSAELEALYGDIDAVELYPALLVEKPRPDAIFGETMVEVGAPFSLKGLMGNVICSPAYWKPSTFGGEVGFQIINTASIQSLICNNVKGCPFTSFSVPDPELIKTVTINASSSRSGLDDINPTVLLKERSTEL
From the text: As well, platelets in whole blood contain a large amount of the COX-1 enzyme. Immediately following blood clotting, platelets are activated through a thrombin-mediated mechanism. This reaction results in the production of thromboxane B2 (TxB2) via activation of COX-1. Thus, the effect of test compounds on TxB2 levels following blood clotting can be examined and used as an index for COX-1 activity. Therefore, the degree of selectivity by the test compound can be determined by measuring the levels of PGE2 after LPS induction (COX-2) and TxB2 following blood clotting (COX-1) in the same assay.
A. COX-2 (LPS-induced PGE2 production)
Fresh blood is collected in heparinized tubes by venipuncture from both male and female volunteers. The subjects have no apparent inflammatory conditions and have not taken any NSAIDs for at least 7 days prior to blood collection. Plasma is immediately obtained from a 2 mL blood aliquot to use as blank (basal levels of PGE2). The remaining blood is incubated with LPS (100 μg/ml final concentration, Sigma Chem, #L-2630 from E. coli; diluted in 0.1% BSA (Phosphate buffered saline) for 5 minutes at room temperature. Five hundred μL aliquots of blood are incubated with either 2μL of vehicle (DMSO) or 2 μL of a test compound at final concentrations varying from […] to 30μM for 24 hours at 37° C. At the end of the incubation, the blood is centrifuged at 12,000×g for 5 minutes to obtain plasma. A 100μL aliquot of plasma is mixed with 400 μL of methanol for protein precipitation. The supernatant is obtained and is assayed for PGE2 using a radioimmunoassay kit (Amersham, RPA#530) after conversion of PGE2 to its methyl oximate derivative according to the manufacturer's procedure. […]

[1] = test system: carrageenan-induced paw edema in rats; test: Rat paw edema assay (carrageenan); type: in vivo, Male Sprague-Dawley rats; details: po, 1 hr before carrageenan, paw volume 3 hr after
Procedure: Male Sprague-Dawley rats (150-200 g) are fasted overnight and are given, po, either vehicle (1% methocel or 5% Tween 80) or a test compound. One hr later, a line is drawn using a permanent marker at the level above the ankle in one hind paw to define the area of the paw to be monitored. The paw volume (V0) is measured using a plethysmometer (Ugo-Basile, Italy) based on the principle of water displacement. The animals are then injected subplantarly with 50 μt of 1% carrageenan solution in saline (FMC Corp, Maine) into the paw using an insulin syringe with a 25-gauge needle (i.e. 500 μg carrageenan per paw). Three hr later, the paw volume (V3) is measured and the increases in paw volume (V3 -V0) are calculated. The animals are sacrificed by CO2 asphyxiation and the absence or presence of stomach lesions scored. Data is compared with the vehicle-control values and percent inhibition calculated. All treatment groups are coded to eliminate observer bias.

Cox-1 = target: T2, Cox-1 (Homo sapiens, UniProt P23219); test: Cox-1 U937 (PGE2 synthesis); type: cell-based
T2 construct: human U-937 cells (which specifically express COX-1); endogenous in cells; host or cells: human U-937 cells (whole cells or their microsomes)
T2 sequence (P23219 24-599): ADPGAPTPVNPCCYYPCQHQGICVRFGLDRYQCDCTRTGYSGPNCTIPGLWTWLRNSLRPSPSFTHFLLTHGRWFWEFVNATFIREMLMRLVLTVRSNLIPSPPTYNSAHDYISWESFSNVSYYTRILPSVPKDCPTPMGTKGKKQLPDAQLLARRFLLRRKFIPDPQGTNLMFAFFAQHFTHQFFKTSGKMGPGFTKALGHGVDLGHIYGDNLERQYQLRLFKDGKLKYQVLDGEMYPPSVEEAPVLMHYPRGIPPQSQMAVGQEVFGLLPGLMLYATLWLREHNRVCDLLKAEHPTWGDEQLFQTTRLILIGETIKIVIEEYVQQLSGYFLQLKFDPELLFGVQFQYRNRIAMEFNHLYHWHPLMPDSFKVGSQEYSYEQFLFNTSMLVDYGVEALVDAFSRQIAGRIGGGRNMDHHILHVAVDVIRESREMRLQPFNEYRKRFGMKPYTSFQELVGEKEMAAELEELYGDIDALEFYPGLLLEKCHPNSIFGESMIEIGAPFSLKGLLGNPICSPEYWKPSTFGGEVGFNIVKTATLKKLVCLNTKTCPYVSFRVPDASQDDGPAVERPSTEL
Procedure: Compounds are tested as inhibitors of cyclooxygenase activity in whole cell cyclooxygenase assays. Both of these assays measure prostaglandin E2 synthesis in response to AA, using a radioimmunoassay. Cells used for these assays are human osteosarcoma 143 cells (which specifically express COX-2) and human U-937 cells (which specifically express COX-1). […] For cyclooxygenase assays, osteosarcoma cells are cultured in 1 mL of media in 24-well multidishes (Nunclon) until confluent (1-2 ×10^5 cells/well). U-937 cells are grown in spinner flasks and resuspended to a final density of 1.5×10^6 cells/mL in 24well multidishes (Nunclon). Following washing and resuspension of osteosarcoma and U-937 cells in 1 mL of HBSS, 1 μL of a DMSO solution of test compound or DMSO vehicle is added, and samples gently mixed. All assays are performed in triplicate. […] AA (peroxide-free, Cayman Chemical) is prepared as a 10 mM stock solution in ethanol and further diluted 10-fold in HBSS. […] Control samples are incubated with ethanol vehicle instead of AA. Samples are again gently mixed and incubated for a further 10 min. at 37° C. For osteosarcoma cells, reactions are then stopped by the addition of 100 μL of 1N HCl, with mixing and by the rapid removal of the solution from cell monolayers. For U-937 cells, reactions are stopped by the addition of 100 μL of 1N HCl, with mixing. Samples are then neutralized by the addition of 100 μL of 1N NaOH and PGE2 levels measured by radioimmunoassay. Assay of COX-1 Activity from U937 cell microsomes U 937 cells are pelleted by centrifugation at 500×g for 5 min and washed once with phosphate-buffered saline and repelleted. Cells are resuspended in homogenization buffer consisting of 0.1M Tris-HCl, pH 7.4, 10 mM EDTA, 2 μg/ml leupeptin, 2 μg/ml soybean trypsin inhibitor, 2 μg/ml aprotinin and 1 mM phenyl methyl sulfonyl fluoride. The cell suspension is sonicated 4 times for 10 sec and is centrifuged at 10,000×g for 10 min at 4° C. The supernatant is centrifuged at 100,000×g for 1 hr at 4° C. The 100,000×g microsomal pellet is resuspended in 0.1M Tris-HCl, pH 7.4, 10 mM EDTA to approximately 7 mg protein/ml and stored at -80° C. […] Assays are performed in duplicate in a final volume of 250 μl. Initially, 5 μl of DMSO vehicle or drug in DMSO are added to 20 μl of 0.1M Tris-HCl buffer, pH 7.4 containing 10 mM EDTA in wells of a 96-deepwell polypropylene titre plate. 200 μl of the microsomal preparation are then added and pre-incubated for 15 min at room temperature before addition of 25 μl of […] arachidonic acid in 0.1M Tris-HCl and 10 mM EDTA, pH 7.4. Samples are incubated for 40 min at room temperature and the reaction is stopped by the addition of 25 μl of 1N HCl. Samples are neutralized with 25 μl of 1N NaOH prior to quantitation of PGE2 content by radioimmunoassay (Dupont-NEN or Amersham assay kits). Cyclooxygenase activity is defined as the difference between PGE2 levels in samples incubated in the presence of arachidonic acid and ethanol vehicle. Compounds of the present invention are inhibitors of COX-2 and are thereby useful in the treatment of COX-2 mediated diseases as enumerated above. The activities of the compounds against cyclooxygenase may be seen in the representative results shown below. In the assay, inhibition is determined by measuring the amount of prostaglandin E2 (PGE2) synthesized in the presence of AA, COX-1 or COX-2 and a putative inhibitor. […]

With `CS(=O)(=O)c1ccc(C2=C(c3ccc(F)cc3)C(=O)CC2)cc1` [A] the “Selectivity Ratio” value (Cox-2) was 5, the IC50 (Cox-2) was 90 nM and the ED50 [1] was 3 mg/kg.
For `CS(=O)(=O)c1ccc(C2=C(c3cccnc3)C(=O)CC2)cc1` [Example 1, 3-(4-(Methylsulfonyl)phenyl)-2-(3-pyridinyl)-2-cyclopenten-1-one], the IC50 (Cox-1) was 30000 nM, the “Selectivity Ratio” value (Cox-2) was 52 and the IC50 (Cox-2) was 580 nM. The ED50 [1] was 1.7 mg/kg.
In the case of `CS(=O)(=O)c1ccc(C2=C(c3cncc(Cl)c3)C(=O)CC2)cc1` [Example 2, 2-(5-Chloropyridin-3-yl)-3-(4-(methylsulfonyl)phenyl)-2-cyclopenten-1-one], the IC50 (Cox-1) is reported as greater than 100000 nM.
`CS(=O)(=O)c1ccc(C2=C(c3ccccc3)C(=O)CC2)cc1` [B] was tested, and the IC50 (Cox-1) was 1900 nM, the “Selectivity Ratio” value (Cox-2) was 10 and the IC50 (Cox-2) was 190 nM. It also gave an ED50 [1] of 10 mg/kg.
With `CS(=O)(=O)c1ccc(C2=C(c3ccc4cccnc4c3)C(=O)OC2)cc1` [C] the IC50 (Cox-1) was 600 nM, the “Selectivity Ratio” value (Cox-2) was 1 and the IC50 (Cox-2) was 590 nM.
In the case of `CS(=O)(=O)c1ccc(C2=C(c3ccc(Cl)cn3)C(=O)CC2)cc1` [Example 10, 2-(5-Chloro-2-pyridinyl)-3-(4-(methylsulfonyl)phenyl)-2-cyclopenten-1-one], the IC50 (Cox-1) is reported as 36000 nM, the “Selectivity Ratio” value (Cox-2) is reported as 78 and the IC50 (Cox-2) is reported as 460 nM. For the same molecule, the ED50 [1] was 2.5 mg/kg.
